From ChEMBL document CHEMBL1201862, “PubChem BioAssay data set” (2004)
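96-well plates; 48 h exposure; 5 concentrations. Endpoints by linear interpolation between flanking doses. Not reached: highest tested concentration assigned. At the GI50, growth is halved.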 Calls of active or inactive are those of the source. No stated cut-off is given here; in the data, active = GI50 up to about 1.1 µM and inactive = higher.

Assays:
Assay in all cases: inhibition of tumour cell growth, NCI panel, 48 h
OVCAR-8 = tested on: OVCAR-8
DU-145 = tested on: DU-145
OVCAR-5 = tested on: OVCAR-5
CCRF-CEM = tested on: CCRF-CEM
NCI-H522 = tested on: NCI-H522
SNB-75 = tested on: SNB-75
SW-620 = tested on: SW-620
MCF7 = tested on: MCF7
HT-29 = tested on: HT-29
A498 = tested on: A498
MDA-MB-435 = tested on: MDA-MB-435
NCI-H460 = tested on: NCI-H460
ACHN = tested on: ACHN
NCI/ADR-RES = tested on: NCI/ADR-RES
786-0 = tested on: 786-0
CAKI-1 = tested on: CAKI-1
HOP-92 = tested on: HOP-92
NCI-H23 = tested on: NCI-H23
IGROV-1 = tested on: IGROV-1
HCC 2998 = tested on: HCC 2998
SR = tested on: SR
Malme-3M = tested on: Malme-3M
HCT-15 = tested on: HCT-15
KM12 = tested on: KM12
T47D = tested on: T47D
SNB-19 = tested on: SNB-19
K562 = tested on: K562
MDA-N = tested on: MDA-N
SK-MEL-28 = tested on: SK-MEL-28
UACC-257 = tested on: UACC-257
BT-549 = tested on: BT-549
COLO 205 = tested on: COLO 205
SN12C = tested on: SN12C
M14 = tested on: M14
HL-60 = tested on: HL-60
UO-31 = tested on: UO-31
OVCAR-4 = tested on: OVCAR-4
SF-539 = tested on: SF-539
MOLT-4 = tested on: MOLT-4
UACC-62 = tested on: UACC-62
A549 = tested on: A549
SK-MEL-5 = tested on: SK-MEL-5
EKVX = tested on: EKVX
LOX IMVI = tested on: LOX IMVI
HCT-116 = tested on: HCT-116
NCI-H226 = tested on: NCI-H226
RXF 393 = tested on: RXF 393

COc1cc(/C=C2\N=C(c3ccccc3)N(c3cc4cc(Sc5ccccc5)ccc4[nH]3)C2=O)ccc1O
GI50 (OVCAR-8): 12.3 µM (inactive)
GI50 (DU-145): 11.7 µM (inactive)
GI50 (OVCAR-5): > 50 µM (inactive)
GI50 (CCRF-CEM): 2.69 µM (inactive)
GI50 (NCI-H522): 1.86 µM (inactive)
GI50 (SNB-75): 21.8 µM (inactive)
GI50 (SW-620): 3.58 µM (inactive)
GI50 (MCF7): 255 nM (active)
GI50 (HT-29): 3.51 µM (inactive)
GI50 (A498): 102 nM (active)
GI50 (MDA-MB-435): 1.46 µM (inactive)
GI50 (NCI-H460): 2.36 µM (inactive)
GI50 (ACHN): 7.46 µM (inactive)
GI50 (NCI/ADR-RES): 3.13 µM (inactive)
GI50 (786-0): 9.59 µM (inactive)
GI50 (CAKI-1): 11.1 µM (inactive)
GI50 (HOP-92): 6.12 µM (inactive)
GI50 (NCI-H23): 18.5 µM (inactive)
GI50 (IGROV-1): 3.28 µM (inactive)
GI50 (HCC 2998): 5.82 µM (inactive)
GI50 (SR): 2.12 µM (inactive)
GI50 (Malme-3M): 1.43 µM (inactive)
GI50 (HCT-15): 2860 nM
GI50 (KM12): > 50 µM (inactive)
GI50 (T47D): 5.52 µM (inactive)
GI50 (SNB-19): > 50 µM (inactive)
GI50 (K562): 1.97 µM (inactive)
GI50 (MDA-N): 1.07 µM (active)
GI50 (SK-MEL-28): > 50 µM (inactive)
GI50 (UACC-257): 14.8 µM (inactive)
GI50 (BT-549): 13.6 µM (inactive)
GI50 (COLO 205): 2.35 µM (inactive)
GI50 (SN12C): 7.87 µM (inactive)
GI50 (M14): 3.65 µM (inactive)
GI50 (HL-60): 1.39 µM (inactive)
GI50 (UO-31): 15.6 µM (inactive)
GI50 (OVCAR-4): 35 µM (inactive)
GI50 (SF-539): 5.14 µM (inactive)
GI50 (MOLT-4): 2.49 µM (inactive)
GI50 (UACC-62): 188 nM (active)
GI50 (A549): > 50 µM (inactive)
GI50 (SK-MEL-5): 2.54 µM (inactive)
GI50 (EKVX): 22.1 µM (inactive)
GI50 (LOX IMVI): 29.9 µM (inactive)
GI50 (HCT-116): 2.11 µM (inactive)
GI50 (NCI-H226): > 50 µM (inactive)
GI50 (RXF 393): 5.02 µM (inactive)
